# Measurements from patent publication US9850283B2, “Macrocyclic inhibitors of the PD-1/PD-L1 and CD80(B7-1)/PD-L1 protein/protein interactions” (BRISTOL-MYERS SQUIBB COMPANY, priority 2013, dated 2017).
# Positions of bridges follow the written chain, without caps; N, C: chain ends. Non-standard residues stand in square brackets, D forms with d. Residues, ends and D or L forms follow the SMILES beside them. ξ: configuration not given here. ξPro(4R-OH) = O=C(O)C1C[C@@H](O)CN1; dNMeNle = CCCC[C@@H](NC)C(=O)O; NMeNle = CCCC[C@H](NC)C(=O)O; NMeA = CN[C@@H](C)C(=O)O; dDap = NC[C@@H](N)C(=O)O; Dab = NCC[C@H](N)C(=O)O; Dap = NC[C@H](N)C(=O)O; ξP = O=C(O)C1CCCN1
# Columns and labels:
# [1] = target: T1, Human PD-L1/PD-1 (Homo sapiens, UniProt Q9NZQ7); test: HTRF PD-1-Ig/PD-L1-His binding assay (human PD-L1); settings: cluster symbol; read-out: HTRF IC50 cluster
# T1 construct: made in house; host or cells: HEK293T
# How it was run: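 The time-resolved fluorescence signal comes from Eu-cryptate anti-Ig (1 nM) and APC anti-His (20 nM) antibodies bound to a PD-1-Ig/PD-L1-His complex. Both partners lack transmembrane regions.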
# [2] = target: T2, LK35.2-hPD-L1 cells / PE-labeled PD-1-Ig (Homo sapiens, UniProt Q9NZQ7); test: LK35.2-hPD-L1 cell binding high-content screening assay; type: cell-based; settings: cluster symbol; cell line of CBA not given (LK35.2-hPD-L1 or 293T-hPD-L1); read-out: CBA IC50 cluster
# T2 construct: expressed in transfected cells; host or cells: LK35.2 mouse B cell line
# How it was run: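 Readout: high-content imaging of PE-PD-1-Ig bound to LK35.2-hPD-L1 cells. Cells plated overnight (RPMI/10% FCS); compound + 1 nM PE-PD-1-Ig, 1 h, 37 °C; 3× dPBS wash before imaging.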
# T2 sequence (Q9NZQ7 19-290): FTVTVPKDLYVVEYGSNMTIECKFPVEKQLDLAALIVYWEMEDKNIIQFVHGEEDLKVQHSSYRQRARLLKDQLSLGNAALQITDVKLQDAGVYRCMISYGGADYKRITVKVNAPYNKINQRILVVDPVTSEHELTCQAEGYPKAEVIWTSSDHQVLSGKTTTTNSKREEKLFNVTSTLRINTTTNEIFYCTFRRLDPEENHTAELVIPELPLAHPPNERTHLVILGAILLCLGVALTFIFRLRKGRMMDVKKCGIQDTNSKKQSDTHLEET
# T1 sequence (Q9NZQ7 with tags, fused parts or gaps): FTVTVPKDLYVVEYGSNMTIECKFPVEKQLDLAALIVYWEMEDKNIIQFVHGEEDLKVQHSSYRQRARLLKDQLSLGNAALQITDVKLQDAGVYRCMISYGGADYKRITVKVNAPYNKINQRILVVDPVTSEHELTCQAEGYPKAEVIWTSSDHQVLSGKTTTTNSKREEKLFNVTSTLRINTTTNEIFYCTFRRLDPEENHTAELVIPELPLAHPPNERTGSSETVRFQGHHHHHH
Structure (SMILES),IC50 [1] [nM],IC50 [2] [nM]
CCCC[C@H]1C(=O)N(C)[C@@H](CCCC)C(=O)N[C@@H](C)C(=O)N[C@H](C(=O)NCC(N)=O)CSCC(=O)N[C@@H](Cc2ccc(O)cc2)C(=O)N(C)[C@@H](C)C(=O)N[C@@H](CC(=O)O)C(=O)N2CCC[C@H]2C(=O)N[C@@H](Cc2c[nH]cn2)C(=O)N[C@@H](CCCCN)C(=O)N2C[C@H](O)CC2C(=O)N[C@@H](Cc2c[nH]c3ccccc23)C(=O)N[C@@H](CO)C(=O)N[C@@H](Cc2c[nH]c3ccccc23)C(=O)N1C (stereo partly drawn) [Example 1202] ({CH2CO}-Y[NMeA]DPHK[ξPro(4R-OH)]WSW[NMeNle][NMeNle]ACG-NH2; thioether N-14),0.385 to 6.74,0.158 to 4.71
CCCC[C@H]1C(=O)N(C)[C@@H](CCCC)C(=O)N[C@@H](CC(=O)O)C(=O)N[C@H](C(=O)NCC(N)=O)CSCC(=O)N[C@@H](Cc2ccc(O)cc2)C(=O)N(C)[C@@H](C)C(=O)N[C@@H](CC(=O)O)C(=O)N2CCC[C@H]2C(=O)N[C@@H](Cc2c[nH]cn2)C(=O)N[C@@H](CCCNC(=N)N)C(=O)N2C[C@H](O)CC2C(=O)N[C@@H](Cc2c[nH]c3ccccc23)C(=O)N[C@@H](CCCNC(=N)N)C(=O)N[C@@H](Cc2c[nH]c3ccccc23)C(=O)N1C (stereo partly drawn) [Example 1203] ({CH2CO}-Y[NMeA]DPHR[ξPro(4R-OH)]WRW[NMeNle][NMeNle]DCG-NH2; thioether N-14),6.76 to 30.3,0.158 to 4.71
CCCC[C@@H]1C(=O)N(C)[C@H](CCCC)C(=O)N[C@@H](C)C(=O)N[C@@H](C(=O)NCC(N)=O)CSCC(=O)N[C@@H](Cc2ccc(O)cc2)C(=O)N2CCCC2C(=O)N[C@H](CC(=O)O)C(=O)N2CCC[C@H]2C(=O)N[C@H](CN)C(=O)N[C@@H](CCC(N)=O)C(=O)N2CCCC2C(=O)N[C@H](Cc2c[nH]c3ccccc23)C(=O)N[C@@H](CCN)C(=O)N[C@@H](Cc2c[nH]c3ccccc23)C(=O)N1C (stereo partly drawn) [Example 1208] ({CH2CO}-Y[ξP][dD]P[dDap]Q[ξP][dW][Dab]W[dNMeNle][dNMeNle]A[dC]G-NH2; thioether N-14),0.385 to 6.74,4.78 to 72.9
CCCC[C@@H]1C(=O)N(C)[C@H](CCCC)C(=O)N[C@@H](C)C(=O)N[C@@H](C(=O)NCC(N)=O)CSCC(=O)N[C@@H](Cc2ccc(O)cc2)C(=O)N2CCCC2C(=O)N[C@H](CC(=O)O)C(=O)N2CCC[C@H]2C(=O)N[C@H](CN)C(=O)N[C@@H](CCC(=O)O)C(=O)N2CCCC2C(=O)N[C@H](Cc2c[nH]c3ccccc23)C(=O)N[C@@H](CCN)C(=O)N[C@@H](Cc2c[nH]c3ccccc23)C(=O)N1C (stereo partly drawn) [Example 1209] ({CH2CO}-Y[ξP][dD]P[dDap]E[ξP][dW][Dab]W[dNMeNle][dNMeNle]A[dC]G-NH2; thioether N-14),6.76 to 30.3,4.78 to 72.9
CCCC[C@@H]1C(=O)N(C)[C@H](CCCC)C(=O)N[C@@H](C)C(=O)N[C@@H](C(=O)NCC(N)=O)CSCC(=O)N[C@@H](Cc2ccc(O)cc2)C(=O)N2CCCC2C(=O)N[C@H](CC(N)=O)C(=O)N2CCC[C@H]2C(=O)N[C@H](CN)C(=O)N[C@@H](CCC(N)=O)C(=O)N2CCCC2C(=O)N[C@H](Cc2c[nH]c3ccccc23)C(=O)N[C@@H](CCN)C(=O)N[C@@H](Cc2c[nH]c3ccccc23)C(=O)N1C (stereo partly drawn) [Example 1211] ({CH2CO}-Y[ξP][dN]P[dDap]Q[ξP][dW][Dab]W[dNMeNle][dNMeNle]A[dC]G-NH2; thioether N-14),6.76 to 30.3,> 74.3
CCCC[C@@H]1C(=O)N(C)[C@H](CCCC)C(=O)N[C@@H](CN)C(=O)N[C@@H](C(=O)NCC(N)=O)CSCC(=O)N[C@@H](Cc2ccc(O)cc2)C(=O)N2CCCC2C(=O)N[C@H](CC(=O)O)C(=O)N2CCC[C@H]2C(=O)N[C@H](CN)C(=O)N[C@@H](CC(=O)O)C(=O)N2CCCC2C(=O)N[C@H](Cc2c[nH]c3ccccc23)C(=O)N[C@@H](CCN)C(=O)N[C@@H](Cc2c[nH]c3ccccc23)C(=O)N1C (stereo partly drawn) [Example 1212] ({CH2CO}-Y[ξP][dD]P[dDap]D[ξP][dW][Dab]W[dNMeNle][dNMeNle][Dap][dC]G-NH2; thioether N-14),> 30.5,> 74.3
